This note sets out measurements from patent publication US20260139328A1, “NOVEL MICROBIAL GENOTOXINS” (Yale University, priority 2022, published 2026).

Series [1] deals with HeLa cells.
The subject of series [2] is HeLa cells. The series can be described thus: alkaline comet unwinding assay in HeLa cells. The class given is cell-based, human. The conditions noted are these: 100 μg/ml synthetic compounds, 5-6 h. On the procedure:
To assess DNA damage using chemical extracts of bacterial metabolites, HeLa, MC38 or HCT116 cells were treated with 5 mg/ml ethyl-acetate extracts diluted in culture medium supplemented with 10 mM HEPES for 4-6 h.
To assess DNA damage using pure compounds, HeLa cells were treated with 100 µg/ml cisplatin, 100 μg/ml, 25 μg/ml, or 10 μg/ml indolimine-214 (1), compound 2, indolimine-200 (3), indolimine-248 (4) or 0.1% DMSO diluted in culture medium supplemented with 10 mM HEPES for 4-6 h.
After treatment with ethyl-acetate extracts or pure synthetic compounds, HeLa cells were washed with PBS and collected via trypsinization. DNA damage was assessed via alkaline single cell gel electrophoresis using the Trevigen Comet Assay kit (Trevigen, Inc.) according to the manufacturer's instructions. Briefly, cells were embedded in Comet LMAgarose and loaded onto CometSlide™. Slides were placed flat at 4° C. in the dark for 10 min and then immersed overnight in Lysis Solution at 4° C. […] Comet images were acquired using a Leica DMRB fluorescence microscope. Tail DNA % (Tail DNA content as a percentage of Comet DNA content) and Tail moment (Tail length multiplied by Tail DNA %) were analyzed with OpenComet v1.3.1., and 20-50 comets were recorded for each sample.

Series [3] has as its system circular pUC19 plasmid DNA.
Series [4] is described as follows: NMR analysis of synthetic indolimine-214 after preparative HPLC purification. The note with it: upon preparative HPLC purification; reversible reaction in water.

For `C(=N\CCc1ccccc1)/c1c[nH]c2ccccc12` [indolimine-248 (4)], in the series with HeLa cells [1], the “γ-H2AX in HeLa cells” value is “triggered increased 7-H2AX in HeLa cells in a dose-dependent manner”.
For the molecule `CC(C)C/N=C/c1c[nH]c2ccccc12` [indolimine-200 (3)], the “γ-H2AX in HeLa cells” value in the series with HeLa cells [1] is “triggered increased 7-H2AX in HeLa cells in a dose-dependent manner”.
Consider `CC(C)CCN=Cc1c[nH]c2ccccc12` [indolimine-214 (1)], for which the “tailing in alkaline comet unwinding assay” value in the series with HeLa cells [2] was “induced tailing”. Moreover, the “DNA damage of circular pUC19 plasmid” value in series [3] is listed as “neither synthetic indolimine-214 (1) nor compound 2 alone (up to 1 mg/ml) induced DNA damage”. For the same molecule, in the series with HeLa cells [1], the “genotoxicity (γ-H2AX, HeLa) in relation to purity” value was “correlated directly with its purity” and the “γ-H2AX in HeLa cells” value is reported as “triggered increased γ-H2AX in a dose-dependent manner”. Besides, in series [4], the “degradation into the two starting materials” value was at least 20%.
